Assay results taken from ChEMBL document CHEMBL1122236, “3'-Amino-2',3'-dideoxyribonucleosides of some pyrimidines: synthesis and biological activities” (1983).
Converted amounts (≈) assume the structure as drawn. The source made the active and inactive calls. No cut-off for these calls is given here.

Experiments:
Proteus vulgaris = assay: Minimum inhibitory concentration against Proteus vulgaris; format: functional
Escherichia coli = assay: Minimum inhibitory concentration against Escherichia coli; format: functional
Salmonella = assay: Minimum inhibitory concentration against Salmonella typhi; format: functional, salmonella typhosa
Vibrio cholerae = assay: Minimum inhibitory concentration against Vibrio cholerae; format: functional
Citrobacter freundii = assay: Minimum inhibitory concentration against Citrobacter freundii; format: functional
unidentified adenovirus = assay: In vitro antiviral activity against adeno virus using plaque reduction assay.; format: functional; details: read-out: ED50 (the source's name)
Serratia marcescens = assay: Minimum inhibitory concentration against Serratia marcescens; format: functional
Pseudomonas aeruginosa = assay: Minimum inhibitory concentration against Pseudomonas aeruginosa; format: functional
L cells = assay: in vitro cytotoxicity against mouse L cells.; format: functional; details: L929, read-out: ED50 (the source's name)
Proteus mirabilis = assay: Minimum inhibitory concentration against Proteus mirabilis; format: functional
Shigella flexneri = assay: Minimum inhibitory concentration against Shigella flexneri; format: functional
Salmonella typhimurium = assay: Minimum inhibitory concentration against Salmonella Typhimurium; format: functional, Salmonella enterica subsp. enterica serovar Typhimurium; details: Salmonella enterica
D-38 = assay: In vitro cytotoxicity against human D-38 cells.; format: functional; details: read-out: ED50 (the source's name)
Staphylococcus aureus = assay: In vitro minimum inhibitory concentration against Staphylococcus aureus; format: functional
Klebsiella pneumoniae = assay: Minimum inhibitory concentration against Klebsiella pneumoniae; format: functional
Pasteurella multocida = assay: Minimum inhibitory concentration against Pasteurella multocida; format: functional
Klebsiella aerogenes = assay: Minimum inhibitory concentration against Enterobacter aerogenes; format: functional
P388 = assay: Activity against P-388/0 mouse tumor at 675 mg/kg administered three times on days 1, 5, 9 after implantation; Inactive; format: functional, organism-based; parameters: dose 675 mg/kg
Candida albicans = assay: Minimum inhibitory concentration against Candida albicans; format: functional
[1] = test system: Escherichia coli (organism); assay: Minimum inhibitory concentration against Escherichia coli
Streptococcus agalactiae = assay: Minimum inhibitory concentration against Streptococcus agalactiae; format: functional
Streptococcus pyogenes = assay: Minimum inhibitory concentration against Streptococcus pyogenes; format: functional
Priestia megaterium = assay: Minimum inhibitory concentration against Bacillus megaterium; format: functional
Enterococcus faecalis = assay: Minimum inhibitory concentration against Streptococcus faecalis; format: functional

Structure (SMILES) | MIC (Proteus vulgaris) | MIC (Escherichia coli) | MIC (Salmonella) | MIC (Vibrio cholerae) | MIC (Citrobacter freundii) | EC50 (unidentified adenovirus) | MIC (Serratia marcescens) | MIC (Pseudomonas aeruginosa) | EC50 (L cells) | MIC (Proteus mirabilis) | MIC (Shigella flexneri) | MIC (Salmonella typhimurium) | EC50 (D-38) | MIC (Staphylococcus aureus) | MIC (Klebsiella pneumoniae) | MIC (Pasteurella multocida) | MIC (Klebsiella aerogenes) | also measured
N[C@H]1C[C@H](n2ccc(=O)[nH]c2=O)O[C@@H]1CO | > 200 µM | > 200 µM | > 200 µM | > 200 µM | > 200 µM | > 100 µM | > 200 µM | > 200 µM | > 100 µM | > 200 µM | > 200 µM | > 200 µM | > 100 µM | > 400 µM | > 200 µM | > 200 µM | > 200 µM | 
NC1CC(n2cc(Br)c(=O)[nH]c2=O)OC1CO (stereo not given) | > 200 µM | > 200 µM | > 200 µM | > 200 µM | > 200 µM | 100 µM | > 200 µM | > 200 µM | > 100 µM | > 200 µM | > 200 µM | > 200 µM | > 100 µM | > 400 µM | > 200 µM | > 200 µM | > 200 µM | 
Nc1ccn([C@H]2C[C@H](N)[C@@H](CO)O2)c(=O)n1 | > 200 µM | > 200 µM | > 200 µM | > 200 µM | > 200 µM | > 100 µM | > 200 µM | > 200 µM | 1 µM | > 200 µM | > 200 µM | > 200 µM | 3 µM | > 400 µM | > 200 µM | > 200 µM | > 200 µM | 
Cc1cn([C@H]2C[C@H](N)[C@@H](CO)O2)c(=O)[nH]c1=O [3-AMINO- 3-DEOXYTHYMIDINE] | > 200 µM | > 200 µM | > 200 µM | > 200 µM | > 200 µM | > 100 µM | > 200 µM | > 200 µM | 3 µM | > 200 µM | > 200 µM | > 200 µM | 100 µM | > 400 µM | > 200 µM | > 200 µM | > 200 µM | 
NC1CC(n2cc(F)c(=O)[nH]c2=O)OC1CO (stereo not given) | > 200 µM |  | > 200 µM | > 200 µM | > 200 µM | 10 µM | > 200 µM | > 200 µM | 100 µM | > 200 µM | > 200 µM | > 200 µM | > 100 µM | 4 µM (≈ 0.981 µg/mL) | > 200 µM | > 200 µM | > 200 µM | Activity (P388): inactive; MIC (Candida albicans): > 200 µM; MIC [1]: > 200 µM; MIC (Streptococcus agalactiae): 20 µM (≈ 4.9 µg/mL); MIC (Streptococcus pyogenes): > 200 µM; MIC (Priestia megaterium): 40 µM (≈ 9.81 µg/mL); MIC (Enterococcus faecalis): 20 µM (≈ 4.9 µg/mL)
NC1CC(n2cc(Cl)c(=O)[nH]c2=O)OC1CO (stereo not given) | > 200 µM | > 200 µM | > 200 µM | > 200 µM | > 200 µM | 100 µM | > 200 µM | > 200 µM | 100 µM | > 200 µM | > 200 µM | > 200 µM | > 100 µM | > 200 µM | > 200 µM | > 200 µM | > 200 µM | 
NC1CC(n2cc(I)c(=O)[nH]c2=O)OC1CO (stereo not given) | > 200 µM | > 200 µM | > 200 µM | > 200 µM | > 200 µM | > 100 µM | > 200 µM | > 200 µM | > 100 µM | > 200 µM | > 200 µM | > 200 µM | > 100 µM | > 400 µM | > 200 µM | > 200 µM | > 200 µM | 
